Measurements published in the METLIN SMRT retention time set (Domingo-Almenara et al. 2019).

Assay: gradient 5% acetonitrile 3 min, to 50% in 2 min, to 85% in 15 min, held 3 min, 100 µL/min
Conditions: column: Zorbax Extend-C18 2.1 x 50 mm; eluents: water / acetonitrile, 0.1% formic acid
Summary of the method: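 Retention times of pure standards were taken from adduct peaks that were selected by computer and manually inspected. Over 3 months, mixtures of ~100 molecules were run by HPLC–quadrupole time-of-flight mass spectrometry in positive and negative ionization mode. The Zorbax Extend-C18 column (2.1 × 50 mm, 1.8 μm) ran at 100 μL/min in water and acetonitrile, each containing 0.1% formic acid, with 40 μL dead volume and 900 μL dwell volume.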

Row | Compound | RP-LC retention time [s]
1 | CC(C)NC(=O)N1CCCN(S(=O)(=O)C(C)C)CC1 | 649
2 | CCn1cc(CCNS(=O)(=O)c2cccc(F)c2)c2cccnc21 | 774
3 | O=C(NCCCN1CCOCC1)c1c(O)c2cccc3c2n(c1=O)CC3 | 845
4 | CC(C)(C)c1ccc(C(=O)N(Cc2ccc(Br)o2)C2CCS(=O)(=O)C2)cc1 (centres undefined) | 1110
5 | Cc1nc(-c2ccc(N3CCN(C(=O)c4cccc(Cl)c4)CC3)nc2)sc1C | 957
6 | Nc1nc(N2CCC3(CC2)OCCO3)ncc1S(=O)(=O)c1ccccc1 | 808
7 | CCn1c(SCC(=O)Nc2nc(-c3ccc(C)cc3)cs2)nnc1-c1cc2ccccc2o1 | 1140
8 | Cc1cccc(-c2noc(C3CCCN3S(=O)(=O)c3c(C)cc(C)cc3C)n2)c1 (centres undefined) | 1340
9 | CCOC(=O)c1c(NC(=O)C2CCN(S(=O)(=O)Cc3ccccc3)CC2)sc2c1CCCC2 | 1340
10 | O=c1c2c(nc(SCc3ccccn3)n1CCc1ccccc1)CCS2 | 657
11 | Cn1cc(C(=O)NCc2ccccc2F)c(S(=O)(=O)N2CCSCC2)n1 | 865
12 | CCOc1cc(=O)c(C(=O)N2CCC(C(N)=O)CC2)nn1-c1ccc(F)c(F)c1 | 625
13 | CCn1ccc(C(=O)NCC2Cn3cccc3C(=O)N2CC(C)C)n1 (centres undefined) | 680
14 | CSc1cccc(NC(=O)C2CCC(=O)N2S(=O)(=O)c2ccc(C)cc2)c1 (centres undefined) | 954
15 | O=c1n(Cc2ccc(F)cc2)nc2c(-c3nc(-c4cccc(F)c4)no3)cccn12 | 971
16 | CCc1nc(-c2csc(S(=O)(=O)N3CCC(C(=O)NC4CCCCC4)CC3)c2)no1 | 955
17 | Cc1ccc(-c2cc3c(N4CCCC(C(=O)NC5CC5)C4)nccn3n2)c(C)c1 (centres undefined) | 782
18 | Cc1cccc(CNC2=NCCNC23CCN(S(=O)(=O)c2ccccc2C)CC3)c1 | 752
19 | O=C(NC1CCCCCC1)c1ccc(-c2ccsc2)nc1 | 943
20 | COc1ccc(NC(=O)c2cccs2)c([N+](=O)[O-])c1 | 860

Row | Compound | RP-LC retention time [s]
21 | O=C(N1CC(Oc2ccc(-c3nc(-c4ccccc4)no3)cc2)C1)C1(c2ccccc2)CC1 | 1310
22 | CC(C)n1cnc2ccc(-c3noc(-c4ccccc4)n3)cc21 | 793
23 | COc1ccccc1C(=O)N1CCC2(CC1)NC(=O)c1cc(C)ccc1N2C | 732
24 | O=C(c1ccncn1)N1CC(F)(F)C[C@H]1COc1ccc2c(c1)CCC2 | 1020
25 | O=C(NCc1ccccc1Br)C1CCN(c2cnc3nccnc3c2)CC1 | 739
26 | Cc1oc(-c2[nH]ncc2C(=O)N2CCCCC2)cc1S(=O)(=O)Nc1ccc(F)c(F)c1 | 780
27 | COc1ccc(-c2nc3n(n2)C2(CCCCC2)[C@@H]2CCCC[C@@H]2N3C(=O)c2cccs2)cc1 | 1270
28 | CCOc1cccc(-c2noc(Cn3c(=O)n(-c4ccccc4F)c(=O)c4sccc43)n2)c1 | 1050
29 | COCCN(Cc1ccsc1)C(=O)C1(c2cccs2)CCCC1 | 1070
30 | CC(=O)C1=C(C)N(CC2CCCO2)C(=O)C1(NC(=O)c1ccc(C(C)(C)C)cc1)C(F)(F)F (centres undefined) | 1050
31 | O=C(Nc1nc2c(s1)CN(S(=O)(=O)C1CC1)CC2)c1cnn(-c2ccccc2)n1 | 855
32 | COc1ccc([N+](=O)[O-])cc1NC(=O)Cc1cccc2ccccc12 | 967
33 | Cc1cccn2c(=O)c(-c3nn[nH]n3)cnc12 | 646
34 | Cc1ccccc1CNS(=O)(=O)c1c[nH]c2ncccc12 | 730
35 | CC(C)NC(=O)C1=CCN(C(=O)c2ccc(F)cc2)CC1 | 714
36 | Cc1ccc(C)c(NC(=O)Cn2nc3c4sc(N(C)C)nc4ncn3c2=O)c1 | 694
37 | O=C(c1cccc(OCC2CCCN(C(=O)C3CCCO3)C2)c1)N1CCCC1 (centres undefined) | 718
38 | c1cnc(N2CCN(c3nc4ccccc4s3)CC2)nc1 | 809
39 | Cn1c(=O)n(CCN2CCCCC2)c(=O)c2c1nc1n2CCCN1c1ccc(Cl)cc1 | 668
40 | OC(CNCc1ccc(-c2ccc(Cl)cc2Cl)o1)c1ccccc1 (centres undefined) | 800

Row | Compound | RP-LC retention time [s]
41 | CCCCN(C)C(=O)CSc1ncc(S(=O)(=O)c2cccs2)c(N)n1 | 749
42 | Cc1cc(OCC(=O)Nc2nc(-c3ccccc3)cs2)cc(C)c1Cl | 1250
43 | CCC(CC)C(=O)N1CCN(c2ccc(=O)n(-c3ccc(Cl)cc3)n2)CC1 | 887
44 | COc1cccc(N2CCN(S(=O)(=O)c3cn(C(C)C)c4ncccc34)CC2)c1 | 1060
45 | CC1(C)CC(=O)c2cn(-c3ccccc3)c(=O)c(C(=O)Nc3cccc(C#N)c3)c2C1 | 1030
46 | O=C(Nc1nnc(SCc2cccc(Cl)c2)s1)c1ccccc1C(F)(F)F | 1010
47 | O=C(O)c1cnn2c(C(F)(F)F)cc(-c3ccc(F)cc3)nc12 | 823
48 | CCCc1noc(-c2cccnc2N2CCCN(Cc3ccc(C)cc3)CC2)n1 | 749
49 | CC1CCN(C(=O)Cn2nc(-c3nc(-c4cccc(Cl)c4)no3)ccc2=O)CC1 | 1040
50 | COC(=O)c1cc(C2CC2)nc2c1c(=O)n(Cc1ccc(Cl)cc1)c(=O)n2C | 1180
51 | COc1ccc(-c2cc3c(=O)n(Cc4ccc(F)cc4)ccn3n2)cc1OC | 913
52 | CCOC(=O)c1ccc(NC(=O)Cc2csc3nc(-c4ccc(C)c(C)c4)cn23)cc1 | 922
53 | Cc1nc(-c2ccc(-c3noc(-c4ccnn4C)n3)cc2)cs1 | 1060
54 | COc1ccc(Cl)cc1NC(=O)NCC1CN(CC2CC2)CC12CCCCC2 (centres undefined) | 786
55 | O=C(NCc1ccco1)C1CCN(Cc2cc3ccccc3n2Cc2ccccc2Cl)CC1 | 790
56 | COCCC(=O)NC1CCN(c2ccc(C)c(C)c2)C1=O (centres undefined) | 688
57 | Cc1cccc(Nc2nc(C(=O)NCc3ccc(F)cc3F)cs2)n1 | 843
58 | Cc1nn(-c2nc(-c3ccc(Cl)cc3)cs2)c(C)c1CC(=O)NCc1ccccc1 | 1170
59 | CCc1ccc(C2=C(C)C(N3CCCN(C(=O)C4CCOC4)CC3)=NS2(=O)=O)cc1 (centres undefined) | 749

More lines, now with the values ahead:

Row | RP-LC retention time [s] | Compound
60 | 1030 | COc1ccc(-c2cc(C(=O)N3CCN(S(=O)(=O)c4ccc(C(C)(C)C)cc4)CC3)[nH]n2)cc1
61 | 946 | CCCCOc1ccc(NC(=O)c2oc3cc(C)ccc3c2C)c2cccnc12
62 | 604 | COc1ccc(Cl)cc1NC(=O)N1CCc2nc[nH]c2C1
63 | 683 | Cc1cc2nc(C(F)(F)F)c(=O)n(C(C)C(=O)NCCN3CCOCC3)c2cc1C (centres undefined)
64 | 887 | COc1ccc(OC)c(-c2cn3ccn(-c4ccc(Cl)cc4)c(=O)c3n2)c1
65 | 761 | CCCn1cc(-c2nc(-c3ccccn3)no2)c(=O)c2cc(F)ccc21
66 | 749 | CCCS(=O)(=O)N1CCCC(c2nnc(-c3cccs3)o2)C1 (centres undefined)
67 | 594 | CC(C)c1cc(N2CCN(C(=O)c3ccccc3)CC2)nc2nncn12
68 | 968 | CC(C)c1noc(C2(NC(=O)C3CCCC3)CCCCC2)n1
69 | 771 | O=C(CN1C(=O)NC(c2ccc(Cl)cc2)C2=C1COC2=O)NCc1ccc(F)cc1 (centres undefined)
70 | 743 | COc1ccc(-c2nc3cc(C)ccn3c2Nc2ccccc2C)cc1
71 | 717 | COC(=O)c1cnc2nc(C)ccc2c1Nc1ccc(F)c(Cl)c1
72 | 886 | COc1cc(-c2nnc(/C=C/c3cccs3)o2)cc(OC)c1OC
73 | 931 | O=c1n(Cc2ccccc2)nc2n1CCN(S(=O)(=O)c1ccc3c(c1)CCC3)CC2
74 | 605 | CCCN1CCN(c2cc(C(=O)O)c3cc(NS(=O)(=O)c4ccccc4C)ccc3n2)CC1
75 | 750 | CCOCC(=O)NCc1ccc2c(c1)CCCN2C(=O)C1CCC1
76 | 866 | CCOC(=O)C(=O)Nc1ccc(SCc2nnc(-c3ccc4c(c3)OCO4)o2)cc1
77 | 590 | CSc1cccc2sc(NCc3cccnc3)nc12
78 | 706 | Cc1ccccc1NC(=O)N1C[C@@H]2C[C@H](NC(=O)c3cccs3)[C@H]1C2
79 | 861 | COc1cccc(Oc2nccnc2N2CCC(C(=O)NCCC(C)C)CC2)c1
80 | 714 | CCN(CCCNC(=O)c1nnc(-c2ccc(S(=O)(=O)N3CCCC3)cc2)o1)c1ccccc1
81 | 1090 | CCOc1ccccc1NC(=O)CSc1nnc2c3cc(-c4ccc(C)c(C)c4)nn3ccn12
82 | 510 | COCC1CN(Cc2cccc3[nH]ccc23)CC12CCNCC2 (centres undefined)
83 | 673 | COc1ccc2cc(C(=O)N3CCN(c4cc(=O)n(C)c(=O)n4C)CC3)[nH]c2c1
84 | 828 | Cc1cc(C(=O)N2CC3CN(S(=O)(=O)c4cccc(F)c4)CC(C2)O3)c(C)o1
85 | 663 | COc1ccc(OC)c(NC(=O)c2cc(NC(=O)C(C)C)cc3nc(C)ccc23)c1
86 | 941 | COC(=O)c1nc(NC(=O)Cn2nc3c(cc2=O)CCCCC3)sc1CC(C)C
87 | 860 | CCC(=O)N1CCc2cc(S(=O)(=O)CCC(=O)NC3CCCc4ccccc43)ccc21 (centres undefined)
88 | 614 | Cc1ccc(S(=O)(=O)Nc2cncc(C(=O)O)c2)cc1
89 | 624 | COCC1CN(Cc2cn[nH]c2-c2ccc(OC)cc2)CCC1(F)F (centres undefined)
